Measurements published in PubChem BioAssay (NCI).
“And” between values parts separate entries of the source, which are not always exact repeats. Equal values may be shown once.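 In this assay, cells in 96-well plates receive the compound at five concentrations for 48 hours. Endpoints are linearly interpolated between the surrounding concentrations. GI50 = concentration required for 50% inhibition of growth. TGI: concentration producing complete growth inhibition.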 *1 amine or outer side, *2 acyl side, *3 side chain or, on linkers, in order; H or OH if unused. Where a SMILES comes first, the peptide text is derived from it. Bridges are numbered along the chain shown (N, C = ends). [ ]: non-standard residue; d: D form. The star is where a group is joined. Phe(3,5-F2) = N[C@@H](Cc1cc(F)cc(F)c1)C(=O)O; Pro(4R-Me) = C[C@H]1CN[C@H](C(=O)O)C1; aThr = C[C@H](O)[C@H](N)C(=O)O; Pip = O=C(O)[C@@H]1CCCCN1; X10 = Fc1cc(C2CC2)ccc1N*; CO = O=C([*:1])[*:2]

Key:
Test in all cases: DTP human tumour cell line panel, 48 h
[1] = system: RXF 393 renal
[2] = system: IGROV1 ovarian
[3] = system: OVCAR-4 ovarian
[4] = system: MOLT-4 leukemia
[5] = system: MALME-3M melanoma
[6] = system: DU-145 prostate
[7] = system: PC-3 prostate
[8] = system: MDA-MB-231 breast
[9] = system: SK-MEL-2 melanoma
[10] = system: KM12 colon

| SMILES | TGI [1] | GI50 [2] | TGI [2] | GI50 [3] | TGI [3] | GI50 [4] | TGI [4] | GI50 [5] | TGI [5] | TGI [6] | TGI [7] | TGI [8] | GI50 [9] | TGI [9] | GI50 [10] | TGI [10] | GI50 [1] | GI50 [6] | GI50 [7] | GI50 [8] |
| --- | --- | --- | --- | --- | --- | --- | --- | --- | --- | --- | --- | --- | --- | --- | --- | --- | --- | --- | --- | --- |
| O=C(Nc1ccccc1)c1c(O)[nH]c(=S)[nH]c1=O | 96.3 µM and 68.9 µM | 45900 nM | 97.1 µM and > 250 µM | 87200 nM | 103 µM and > 250 µM | 40000 nM | 53.2 µM and 96.4 µM | 58500 nM | 96.6 µM and > 250 µM | 103 µM | 85.2 µM | 94 µM | 61600 nM | 101 µM and 179 µM | 69900 nM | 111 µM and > 250 µM |  |  |  |  |
| COc1ccc2c(c1)sc1nc(-c3ccccc3)c(-c3cccc4ccccc34)n12 | 1.29 µM | 2070 nM | > 100 µM | 2870 nM | > 100 µM | 774 nM | > 100 µM | > 100000 nM | > 100 µM | > 31.9 µM | > 100 µM | > 100 µM | 1670 nM | > 100 µM | 429 nM | > 34.7 µM | 249 nM | 767 nM | 500 nM | 1320 nM |
| Cc1ccc(Cl)c2c(N=Nc3ccccc3[N+](=O)[O-])c(O)[nH]c12 | > 100 µM |  | > 100 µM |  | > 100 µM |  | > 100 µM |  | > 100 µM | > 100 µM | > 100 µM | > 100 µM |  | > 100 µM |  | > 100 µM |  |  |  |  |
| Cc1ccsc1C(=S)Nc1ccc(Cl)c(/C=N/OC(C)(C)C)c1 | 36.6 µM |  | > 100 µM |  | > 100 µM |  | > 100 µM |  | > 100 µM | > 100 µM | > 100 µM | 69.9 µM |  | > 100 µM |  | > 100 µM |  |  |  |  |
| C[C@@H]1C[C@H]2C(=O)O[C@@H](C)[C@H](NC(=O)[C@H](Cc3cc(F)cc(F)c3)NC(=O)Nc3ccc(C4CC4)cc3F)C(=O)N3CCC[C@H]3C(=O)N3CCCC[C@H]3C(=O)N[C@@H](C)C(=O)N2C1 ({X10-CO}-[Phe(3,5-F2)][aThr]P[Pip]A[Pro(4R-Me)]; ester 2-C) | 3.99 µM | 149 nM | 18.5 µM | 33 nM | 3.84 µM | 205 nM | > 42.7 µM | 63.5 nM | 5.9 µM | > 56.9 µM | > 36 µM | 1.3 µM | 54.9 nM | 3.83 µM | 90.9 nM | 10.3 µM | 233 nM | 53 nM | 35.5 nM | 40.2 nM |
| CC(C)=CCC\C(C)=C/C=C/C(C)=C\C=C\C(C)=C/C=C/C=C(C)\C=C\C=C(C)/C=C/C=C(/C)CCC=C(C)C | > 100 µM |  | > 100 µM |  | > 100 µM |  | > 100 µM |  | > 100 µM | > 100 µM | > 100 µM | > 100 µM |  | > 100 µM |  | > 100 µM |  |  |  |  |
| CN1CCCCC1CCN1c2ccccc2Sc2ccc(Cl)cc21 (stereo unspecified) | 8.47 µM | 3240 nM | 10.6 µM | 3660 nM | 16 µM | 3200 nM | 10.2 µM | 2100 nM | 4.25 µM | 17.6 µM | 11.7 µM | 6.32 µM | 3060 nM | 8.97 µM | 2770 nM | 7.38 µM | 3180 nM | 5500 nM | 3220 nM | 2090 nM |
| CCN1/C(=C\c2cc[n+](CC)c3ccccc23)C=Cc2ccccc21 | 4.27 µM | 360 nM | 12.8 µM | 55.9 nM | 12.2 µM | 207 nM | 4.44 µM | 138 nM | 0.857 µM | 13.4 µM | 1.85 µM | 10.2 µM | 231 nM | 10.9 µM | 104 nM | 1.42 µM | 333 nM | 265 nM | 117 nM | 273 nM |
